Here are results for five compounds from US8614168B2, “Use of azoles for increasing the abiotic stress resistance of plants or plant parts” (Monheim, priority 2008, dated 2013).

Each structure is given as a SMILES string.

Data set [1] relates to BRSNS: oilseed rape (Brassica napus). In words: Dry stress test on potted plants, spray application, oilseed rape. The data set is classed as in vivo. As to conditions: individual substance. The protocol: (§1) Seeds of monocotyledonous and dicotyledonous crop plants are placed in sandy loam in wood-fiber pots, covered with soil and cultivated in a greenhouse under good growth conditions. The test plants are treated in the early leaf stage (BBCH10-BBCH13, BBCH-Monografie der Biologische Bundesanstalt für Land and Forstwirtschaft, 2nd edition, 2001), i.e. 2-3 weeks after sowing according to the species. To ensure uniform water supply before commencement of stress, the potted plants were supplied with the maximum amount of water immediately beforehand by dam irrigation and transferred in plastic inserts in order to prevent subsequent, excessively rapid drying. The inventive compounds, formulated in the form of wettable powders (WP), are then sprayed onto the green parts of the plants as an aqueous suspension at an equivalent water application rate of 600 l/ha with addition of 0.2% wetting agent (agrotin). Substance application is followed immediately by stress treatment of the plants (cold or dry stress). Dry stress is induced by slow drying under the following conditions: • “day”: 14 hours with illumination at 26° C. • “night”: 10 hours without illumination at 18° C. The cold stress phase is ended after exactly 14 days. The duration of the dry stress phase is guided mainly by the state of the untreated, stressed control plants and thus varies from crop to crop. It is ended (by re-irrigating) as soon as irreversible damage is observed on the untreated, stressed control plants. In the case of dicotyledonous crops, for example oilseed rape and soya, the duration of the dry stress phase is between 4 and 6 days, in the case of monocotyledonous crops, for example wheat, barley or corn, between 6 and 10 days. The end of the stress phase is followed by a 7-day recovery phase, during which the plants are once again kept under good growth conditions in a greenhouse. In order to rule out any influence of the effects observed by any fungicidal action of the test compounds, it is additionally ensured that the tests proceed without fungal infection and without infection pressure. After the recovery phase has ended, the intensities of damage are rated visually compared to untreated, unstressed controls of the same age (in the case of dry stress) or the same growth stage (in the case of cold stress). The intensity of damage is first assessed as a percentage (100%=plants have died, 0%=like control plants). These values are then used to calculate the efficacy of the test compounds (=percentage reduction in the intensity of damage as a result of substance application) by the following formula: [formula] EF: efficacy (%) DVus: damage value of the untreated, stressed control DVts: damage value of the plants treated with test compound The table below lists mean values in each case from three results of the same test.

For data set [2], the system named is HORVS barley (Hordeum vulgare). Description: Dry stress test on potted plants, spray application, barley. The following applies: 100 g/ha, individual substance. The data set is classed as in vivo. The protocol:
Seeds of monocotyledonous and dicotyledonous crop plants are placed in sandy loam in wood-fiber pots, covered with soil and cultivated in a greenhouse under good growth conditions. The test plants are treated in the early leaf stage (BBCH10-BBCH13, BBCH-Monografie der Biologische Bundesanstalt für Land and Forstwirtschaft, 2nd edition, 2001), i.e. 2-3 weeks after sowing according to the species. To ensure uniform water supply before commencement of stress, the potted plants were supplied with the maximum amount of water immediately beforehand by dam irrigation and transferred in plastic inserts in order to prevent subsequent, excessively rapid drying. The inventive compounds, formulated in the form of wettable powders (WP), are then sprayed onto the green parts of the plants as an aqueous suspension at an equivalent water application rate of 600 l/ha with addition of 0.2% wetting agent (agrotin). Substance application is followed immediately by stress treatment of the plants (cold or dry stress). Dry stress is induced by slow drying under the following conditions: • “day”: 14 hours with illumination at 26° C. • “night”: 10 hours without illumination at 18° C. The cold stress phase is ended after exactly 14 days. […] The intensity of damage is first assessed as a percentage (100%=plants have died, 0%=like control plants). […]

For another data set, the system named is ZEAMX: corn (Zea mais). Description: Dry stress test on potted plants, spray application, corn. The data set is classed as in vivo. As to conditions: individual substance. The protocol: as §1
Data set [3] has as its system crop plants, for example oilseed rape. In words: Stunting: mean plant height after azole application. The data set is classed as in vivo. As to conditions: dosage 250 g/ha, comparative 11.7 cm. An excerpt: In the case of application of the inventive azoles, this stunting occurs to a lower or non-undesirable degree: […]
The next data set concerns ABA 8′-hydroxylase. As to conditions: studies to date (Kitahata et al., 2005; Saito et al., 2006); cited from earlier work.

Regarding `Fc1ccc([C@]2(Cn3cncn3)O[C@H]2c2ccccc2Cl)cc1` (racemic) [epoxiconazole], the entries for the “efficacy (percentage reduction in the intensity of damage)” value (in data set [1] (100 g/ha); in data set [2]; in the data set with ZEAMX: corn (Zea mais) (100 g/ha)) were 35%, 17% and 11%, respectively.

On to `CC(C1CC1)C(O)(Cn1cncn1)c1ccc(Cl)cc1` (stereo not shown) [cyproconazole], for which the “efficacy (percentage reduction in the intensity of damage)” value is listed as 42% in data set [1] (250 g/ha), 40% in the data set with ZEAMX: corn (Zea mais) (100 g/ha) and 37% with ZEAMX: corn (Zea mais) (250 g/ha).

As for `CC1(C)CCC(Cc2ccc(Cl)cc2)C1(O)Cn1cncn1` (stereo not shown) [metconazole], the “efficacy (percentage reduction in the intensity of damage)” value in data set [1] (100 g/ha) is given as 50%.

Regarding `OC(Cc1ccccc1Cl)(Cn1nc[nH]c1=S)C1(Cl)CC1` (stereo not shown) [prothioconazole], the “efficacy (percentage reduction in the intensity of damage)” value in data set [1] (100 g/ha) came to 12%; in data set [2], 11%; with ZEAMX: corn (Zea mais) (100 g/ha), 12%. In data set [3], the “Mean plant height (cm)” value is given as 10.2 cm.

As for `CC(C)(C)C(O)(CCc1ccc(Cl)cc1)Cn1cncn1` (stereo not shown) [tebuconazole], the “efficacy (percentage reduction in the intensity of damage)” value in data set [1] (100 g/ha) is given as 27%; in data set [1] (250 g/ha), 42%; in the data set on ZEAMX: corn (Zea mais) (250 g/ha) it was 30%. Besides, the “Mean plant height (cm)” value in data set [3] was determined as 10.2 cm. Further, the “inhibiting action on abscisic acid catabolism or ABA 8′-hydroxylase” value in the data set on ABA 8′-hydroxylase was “only slight inhibiting action, if any”.
